# Assay results reported in patent US11045416B2, “Topical compositions comprising Pichia anomala and retinol” (Johnson & Johnson Consumer Inc., priority 2018, dated 2021).
# Tested on: Heparin Binding Epidermal Growth Factor (HBEGF)
# Assay: HBEGF gene expression in human skin explants by qPCR (Example 3)
# Format: cell-based
# Conditions: 4 μL topically, 48 hours; observed minus untreated (100)
# Protocol: First, abdominal skin samples were obtained from human adults undergoing abdominoplasty surgery. Informed consent was obtained from each patient, and all experimental steps were approved by an institutional review board (IRB). Subcutaneous fat was carefully removed and skin biopsies of 0.93 cm^2 were prepared under sterile conditions and acclimated in keratinocyte growth media sold under the tradename KGM-GOLD BULLETKIT (Lonza, Walkersville, Md.), with 10% antibiotics under a 5% CO2 humidified atmosphere overnight.
# The skin explants were treated topically with 4 μL of the various formulations and left to incubate for 48 hours. An untreated explant sample was used as the control. In the case of combined application of Composition 5 and the 5% solution of Pichia anomala extract, 4 μL of each were applied. At the end of the 48 h, epidermis and dermis were separated by heating. […]
# Gene expression assays were performed by real time quantitative polymerase chain reaction (PCR) based on the SyBR green method. qPCR was run on a real time PCR system sold under the tradename CFX96 TOUCH (Bio-Rad Laboratories, Inc., Hercules, Calif.). […] The fold changes were calculated in comparison to the untreated controls and ANOVA statistical test was performed.
smiles,measurement,value
"CC1=C(/C=C/C(C)=C/C=C/C(C)=C/CO)C(C)(C)CCC1 [retinol, Retinol]","HBEGF expression, Observed Normalized to untreated",291
